System: U937 cell line (human histiocytic lymphoma cell line)
Assay: U937 cell viability assay (TNF-α + Z-VAD-FMK induced necroptosis)
Type: cell-based
Conditions: U937 cells, hTNF-α 0.1 μg/mL + Z-VAD-FMK 50 μM, 20 hours, CellTiter-Glo
Procedure: U937 cell line (human histiocytic lymphoma cell line): purchased from ATCC (American Type Culture Collection) Cell Bank, cultured in a 5% CO2, 37° C. incubator, and RPMI 1640 medium which contains L-glutamine, 1.5 g/L sodium bicarbonate, 2.383 g/L HEPES solution, 0.11 g/L sodium pyruvate and 4.5 g/L glucose, plus 10% fetal bovine serum (FBS) was used. • RPMI 1640 medium: GIBCO, Cat #A10491-01; • Fetal bovine serum (FBS): GIBCO, Cat #10099-141C; • Dimethyl sulfoxide (DMSO): Sigma, Cat #D2650; • Recombinant Human TNF-alpha Protein (hTNF-α): R&D system, Cat #210-TA-100; • Pan-Caspase inhibitor (Z-VAD-FMK): Selleckchem, Cat #S7023; • CellTiter-Glo 2.0 Cell Viability Assay kit: Promega, Cat #G9242; • Microwell plate reader: Envision, Perkin Elmer; • 96-well plate: Corning, Cat #3917.
The U937 cells at the logarithmic phase were taken out, centrifuged to remove the medium, washed with PRMI 1640 medium containing 1% FBS, and diluted with 1% FBS-containing RPMI 1640 medium to 2.5×10^5 cells/ml, inoculated at 70 μL/well into a 96-well plate, i.e., 1.75×10^4 cells/well. The plate was cultured in a 5% CO2, 37° C. cell incubator. After incubating for 1 hour, the test compound was diluted to the corresponding concentrations using DMSO with 3-fold serial dilution, then the corresponding concentration of DMSO diluted solution was diluted into 1% FBS-containing RPMI 1640 medium, and 10 μL/well of the diluted test compound with different concentrations (final concentration of test compound was 1.0, 0.333, 0.111, 0.037, 0.012, 0.004, 0.0014 and 0.0005 μM, while final concentration of DMSO was 0.3%) or 10 μL/well control solution (3% DMSO) were added to the cell culture system respectively, with the total volume being 80 μL/well; Then 10 μL of Z-VAD-FMK solution diluted with 1% FBS-containing RPMI 1640 medium (final concentration of 50 μM) or 10 μL of control solution (2.5% DMSO) was added to each well, with the total volume being 90 μL/well. The plate was incubated in a 5% CO2, 37° C. cell culture incubator for 1 hour.
After being cultured for 1 hour, 10 μL of human recombinant TNF-α protein diluted with 1% FBS-containing RPMI 1640 medium (final concentration of 0.1 μg/mL) or 10 μL/well control solution (1% FBS-containing RPMI 1640 medium) was added to each well. The plate was incubated in a 5% CO2, 37° C. cell culture incubator for 20 hours.
The cell culture plate was taken out from the incubator, and left to stand at room temperature for 30 minutes. Meanwhile, CellTiter-Glo viability assay kit was put from freezer to room temperature, and 50 μL of CellTiter-Glo reagent was added to all wells, the plate was shaken for 1 minutes, protected from light at room temperature for 10 minutes then read the plate on Envision to get the luminescence signal.
The 96-well plate in the dark was taken out, and the chemiluminescence was determined using the Envision microwell plate reader as the signal value of each well.
The mean signal value of the wells of the mixed solution of recombinant human TNF-alpha protein (final concentration of 0.1 μg/mL) and Pan-Caspase inhibitor (final concentration of 50 μM) was used as the lower value, and the mean signal value of the wells without stimulation was used as the upper value. According to the signal value of each well, the inhibition rate of each concentration of every compound was calculated, and the IC50 value of compound was obtained by Model 205 in XL-Fit 5.3 software (ID Business Solutions Limited).
Inhibition rate %=[(Luminescence readout of treated compound−Luminescence readout of positive control)/(Luminescence readout of negative control−Luminescence readout of positive control)]×100%, wherein

| SMILES | IC50 (Homo sapiens, U-937) | IC50 |
| --- | --- | --- |
| Cn1cncc(-c2ccc(C3(NC(=O)c4nnc(Cc5c(F)cccc5F)[nH]4)CC3)cc2)c1=O [Compound 18] | 82 nM |  |
| CC(C)n1cncc(-c2ccc(C3(NC(=O)c4ncc5cnn(C(C)C)c5n4)CC3)c(F)c2Cl)c1=O [Compound 91] | 11 nM |  |
| CC(C)n1ncc2cnc(C(=O)NC3(c4ccc(-c5cncn(CC6CC6)c5=O)cc4F)CC3)nc21 [Compound 74] | 1 nM |  |
| CC(C#N)n1cncc(-c2ccc(C3(NC(=O)c4ncc5cnn(C(C)C)c5n4)CC3)cc2)c1=O (stereo in doubt) [Compound 82, (R)—N-(1-(4-(1-(1-cyanoethyl)-6-oxo-1,6-dihydropyrimidin-5-yl)phenyl)cyclopropyl)-1-i-propyl-1H-pyrazolo[3,4-d]pyrimidine-6-carboxamide] | 18 nM |  |
| CC(C)n1ncc2cnc(C(=O)NC3(c4ccc(-c5cncn([C@H]6C[C@@H](F)C6)c5=O)cc4)CC3)nc21 [Compound 88, N-(1-(4-(1-(cis-3-fluorocyclobutyl)-6-oxo-1,6-dihydropyrimidin-5-yl)phenyl)cyclopropyl)-1-i-propyl-1H-pyrazolo[3,4-d]pyrimidine-6-carboxamide] |  | 11 nM |
| C[C@@H](n1cncc(-c2ccc(C3(NC(=O)c4ncc5cnn(CC6CC6)c5n4)CC3)c(F)c2)c1=O)C(F)(F)F [Compound 76] | 3 nM |  |
| CC(C)n1cncc(-c2ccc(C3(NC(=O)c4ncc5cnn([C@H](C)C6CC6)c5n4)CC3)cc2)c1=O [Compound 89, (R)-1-(1-cyclopropylethyl)-N-(1-(4-(1-i-propyl-6-oxo-1,6-dihydropyrimidin-5-yl)phenyl)cyclopropyl)-1H-pyrazolo[3,4-d]pyrimidine-6-carboxamide] | 5 nM |  |
| CC(C)n1ncc2cnc(C(=O)NC3(c4ccc(-c5cncn(C6CCC6)c5=O)cc4)CC3)nc21 [Compound 42] | 7 nM |  |
| Cn1cncc(-c2ccc(C3(NC(=O)c4noc(Cc5ccccc5)n4)CC3)cc2)c1=O [Compound 9] | 52 nM |  |
| CC(C)n1cncc(-c2ccc(C3(NC(=O)c4ncc5cnn(C(C)C6CC6)c5n4)CC3)cc2)c1=O (racemic) [Compound 59, 1-(1-cyclopropylethyl)-N-(1-(4-(1-i-propyl-6-oxo-1,6-dihydropyrimidin-5-yl)phenyl)cyclopropyl)-1H-pyrazolo[3,4-d]pyrimidine-6-carboxamide] | 3 nM |  |
| CC(C)n1ncc2cnc(C(=O)NC3(c4ccc(-c5cncn([C@H]6C[C@H](F)C6)c5=O)cc4)CC3)nc21 [Compound 87, N-(1-(4-(1-(trans-3-fluorocyclobutyl)-6-oxo-1,6-dihydropyrimidin-5-yl)phenyl)cyclopropyl)-1-i-propyl-1H-pyrazolo[3,4-d]pyrimidine-6-carboxamide] | 11 nM |  |
| CC(C)n1cncc(-c2ccc(C3(NC(=O)c4nc5n(n4)[C@@H](c4ccccc4)CC5)CC3)cc2)c1=O [Compound 15] | 20 nM |  |
| CC(C)n1cncc(-c2ccc(C3(NC(=O)c4ncc5cnn(C(C)C)c5n4)CC3)c(F)c2)c1=O [Compound 34] | 7 nM |  |
| CC[C@@H](C)n1cncc(-c2ccc(C3(NC(=O)c4ncc5cnn(C(C)C)c5n4)CC3)cc2)c1=O [Compound 44] | 2 nM |  |
| CC(C)n1ncc2cnc(C(=O)NC3(c4ccc(-c5cncn(C)c5=O)cn4)CC3)nc21 [Compound 2] | 170 nM |  |
| CC(C)n1ncc2cnc(C(=O)NC3(c4ccc(-c5cncn(C6CCOC6)c5=O)cc4)CC3)nc21 (stereo in doubt) [Compound 80, (R)-1-i-propyl-N-(1-(4-(6-oxo-1-(tetrahydrofuran-3-yl)-1,6-dihydropyrimidin-5-yl)phenyl)cyclopropyl)-1H-pyrazolo[3,4-d]pyrimidine-6-carboxamide] | 9 nM |  |
| CC(C)n1cncc(-c2ccc(C3(NC(=O)c4ncc5cnn(CC6CCC6)c5n4)CC3)cc2)c1=O [Compound 62] | 2 nM |  |
| Cn1cncc(-c2ccc(C3(NC(=O)c4nc5n(n4)[C@@H](c4ccccc4)CC5)CC3)cc2)c1=O [Compound 54, (R)—N-(1-(4-(1-methyl-6-oxo-1,6-dihydropyrimidin-5-yl)phenyl)cyclopropyl)-5-phenyl-6,7-dihydro-5H-pyrrolo[1,2-b][1,2,4]triazole-2-carboxamide] | 12 nM |  |

| SMILES | IC50 (Homo sapiens, U-937) | IC50 |
| --- | --- | --- |
| CC(C)n1ncc2cnc(C(=O)NC3(c4ccc(-c5cncn([C@H]6C[C@@H]6F)c5=O)cc4)CC3)nc21 [Compound 67] | 91 nM |  |
| CC(C)n1ncc2cnc(C(=O)NC3(c4ccc(-c5cncn([C@H](C)C(F)(F)F)c5=O)cc4F)CC3)nc21 (stereo in doubt) [Compound 46] | 2 nM |  |
| Cn1cncc(-c2ccc(C3(NC(=O)c4ncn(Cc5ccccc5)n4)CC3)cc2)c1=O [Compound 8] | 14 nM |  |
| CC(C)n1cncc(-c2ccc(C3(NC(=O)c4ncc5cnn(-c6ccccn6)c5n4)CC3)cc2)c1=O [Compound 63] | 51 nM |  |
| CC(C)n1cncc(-c2ccc(C3(NC(=O)c4ncc5cnn(CC6CC6)c5n4)CC3)cc2F)c1=O [Compound 73] | 2 nM |  |
| CC(C)n1ncc2cnc(C(=O)NC3(c4ccc(-c5cncn(C6(C)CCC6)c5=O)cc4)CC3)nc21 [Compound 79] | 2 nM |  |
| CC(C)n1cncc(-c2ccc(C3(NC(=O)c4nnc(Cc5ccccc5)o4)CC3)cc2)c1=O [Compound 13] | 4 nM |  |
| CC(C)n1cncc(-c2ccc(C3(NC(=O)c4nc5n(n4)[C@H](c4ccccc4)CC5)CC3)cc2)c1=O [Compound 16] | 2 nM |  |
| CC(C)n1ncc2cnc(C(=O)NC3(c4ccc(-c5cncn(C6CC(F)(F)C6)c5=O)cc4)CC3)nc21 [Compound 65] | 7 nM |  |
| CC(C)n1cncc(-c2ccc(C3(NC(=O)c4ncc5cnn(C(C)C)c5n4)CC3)cc2Cl)c1=O [Compound 33] | 10 nM |  |
| CC(C)n1ncc2cnc(C(=O)NC3(c4ccc(-c5cncn(C)c5=O)c(Cl)c4)CC3)nc21 [Compound 25] | 32 nM |  |
| CC(C)n1cncc(-c2ccc(C3(NC(=O)c4ncc5cnn(C(C)C)c5n4)CC3)cc2F)c1=O [Compound 35] | 11 nM |  |
| CC(C)n1cncc(-c2ccc(C3(NC(=O)c4ncc5cnn([C@@H](C)C6CC6)c5n4)CC3)cc2)c1=O [Compound 90, (S)-1-(1-cyclopropylethyl)-N-(1-(4-(1-i-propyl-6-oxo-1,6-dihydropyrimidin-5-yl)phenyl)cyclopropyl)-1H-pyrazolo[3,4-d]pyrimidine-6-carboxamide] | 4 nM |  |
| CC(C)n1ncc2cnc(C(=O)NC3(c4cc(F)c(-c5cncn(CC6CC6)c5=O)cc4F)CC3)nc21 [Compound 94] | 3 nM |  |
| CC(C)n1cncc(-c2ccc(C3(NC(=O)c4ncc5cnn(C6COC6)c5n4)CC3)cc2)c1=O [Compound 60] | 66 nM |  |
| CC(C)n1ncc2cnc(C(=O)NC3(c4ccc(-c5cnc(N)n(C)c5=O)cc4)CC3)nc21 [Compound 30] | 8 nM |  |
| CC(C)n1ncc2cnc(C(=O)NC3(c4ccc(-c5cncn(C6CCOCC6)c5=O)cc4)CC3)nc21 [Compound 77] | 10 nM |  |
| CC(C)n1ncc2cnc(C(=O)NC3(c4ccc(-c5cncn([C@H](C)C6CC6)c5=O)cc4)CC3)nc21 [Compound 84, (R)—N-(1-(4-(1-(1-cyclopropylethyl)-6-oxo-1,6-dihydropyrimidin-5-yl)phenyl)cyclopropyl)-1-i-propyl-1H-pyrazolo[3,4-d]pyrimidine-6-carboxamide] | 1 nM |  |
